Measured values from ChEMBL document CHEMBL5352475, “Design, synthesis, and biological evaluation of novel glutaminase 1 allosteric inhibitors with an alkane chain tail group” (Eur J Med Chem, 2023).
Values after ≈ are worked out from the molar mass of the structure shown.

Legend:
HCT-116 [1] = test: cells; settings: Homo sapiens, HCT-116, 72 h
Description: Antiproliferative activity against human HCT-116 cells incubated for 72 hrs by MTT assay

[2] = target: T1, Glutaminase kidney isoform, mitochondrial (Homo sapiens, UniProt O94925); test: Inhibition of GLS1 (unknown origin) preincubated for 10 mins followed by glutamine addition measured after 60 mins
T1 sequence (O94925 whole entry): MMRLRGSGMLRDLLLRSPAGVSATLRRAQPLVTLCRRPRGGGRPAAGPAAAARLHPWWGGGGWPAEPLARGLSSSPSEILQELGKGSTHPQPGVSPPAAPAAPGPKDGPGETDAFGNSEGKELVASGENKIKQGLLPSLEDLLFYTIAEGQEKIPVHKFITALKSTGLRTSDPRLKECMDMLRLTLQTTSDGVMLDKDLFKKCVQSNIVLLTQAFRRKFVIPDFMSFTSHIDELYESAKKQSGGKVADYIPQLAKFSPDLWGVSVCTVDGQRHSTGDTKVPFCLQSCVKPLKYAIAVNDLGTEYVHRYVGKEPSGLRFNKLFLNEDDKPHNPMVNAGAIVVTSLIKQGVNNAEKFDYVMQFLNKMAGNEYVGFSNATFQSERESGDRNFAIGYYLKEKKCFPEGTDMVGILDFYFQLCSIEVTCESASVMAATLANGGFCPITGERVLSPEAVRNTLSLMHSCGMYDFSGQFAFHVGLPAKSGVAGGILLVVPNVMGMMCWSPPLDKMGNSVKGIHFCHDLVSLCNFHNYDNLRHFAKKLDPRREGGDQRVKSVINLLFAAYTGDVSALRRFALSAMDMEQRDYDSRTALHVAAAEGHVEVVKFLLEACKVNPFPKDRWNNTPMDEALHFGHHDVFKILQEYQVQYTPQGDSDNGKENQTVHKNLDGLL

[3] = Metabolic stability in human liver microsomes assessed as half life by LC-MS/MS analysis; format: ADME, Microsome
[4] = Metabolic stability in human liver microsomes assessed as clearance measured upto 120 mins by LC-MS/MS analysis; format: ADME, Microsome; settings: read-out: CLH
HCT-116 [5] = test: Antitumor activity against human HCT-116 cells xenografted in BALB/c nude mouse assessed as tumor growth inhibition at 100 mg/kg, ip for 20 days relative to control; format: functional; settings: Mus musculus, HCT-116, 480 h, time 20 day, read-out: TGI
[6] = target: T2, Glutaminase kidney isoform, mitochondrial (Homo sapiens) (UniProt O94925)
T2 sequence (whole entry): T1 sequence (O94925 whole entry)
Description: Stabilization of GLS1 (unknown origin) assessed as change in melting temperature by protein thermal assay

[7] = Intrinsic aqueous solubility of the compound in PBS buffer at pH 7.4 measured after 72 hrs by LC-MS analysis; format: physicochemical; settings: read-out: Intrinsic_solubility

SMILES | IC50 (HCT-116 [1]) [nM] | IC50 [2] [nM] | also measured
CCCCC(=O)Nc1nnc(CCCCc2ccc(NC(=O)Cc3cccc(OCC)c3)nn2)s1 | 8540 | 220 | –
C=CCCCCOc1cccc(CC(=O)Nc2nnc(CCCCc3ccc(NC(=O)CCC=C)nn3)s2)c1 | 660 | 34 | –
CCCCCOc1cccc(CC(=O)Nc2ccc(CCCCc3nnc(NC(=O)CCCC)s3)nn2)c1 | 2180 | 24 | –
C=CCCCOc1cccc(CC(=O)Nc2ccc(CCCCc3nnc(NC(=O)CCC=C)s3)nn2)c1 | 920 | 79 | –
C#CCOc1cccc(CC(=O)Nc2ccc(CCCCc3nnc(NC(=O)CCCC)s3)nn2)c1 | > 10000 | 1050 | –
C#CCCC(=O)Nc1nnc(CCCCc2ccc(NC(=O)Cc3cccc(O)c3)nn2)s1 | 3440 | 580 | –
C=CCCCCOc1cccc(CC(=O)Nc2ccc(CCCCc3nnc(NC(=O)C4CC(F)(F)C4)s3)nn2)c1 | 1680 | 32 | half-life [3]: 87.8 min; microsomal CLint [4]: 39.5 µL/min/mg
C=CCCOc1cccc(CC(=O)Nc2ccc(CCCCc3nnc(NC(=O)CC=C)s3)nn2)c1 | 1600 | 110 | –
O=C(Cc1ccccc1)Nc1nnc(CCSCCc2nnc(NC(=O)Cc3ccccc3)s2)s1 | – | – | inhibition in vivo at 100 mg/kg (HCT-116 [5]): 31.3%
CCCCCCCOc1cccc(CC(=O)Nc2ccc(CCCCc3nnc(NC(=O)CCCC)s3)nn2)c1 | 1960 | 17 | –
CCCCC(=O)Nc1nnc(CCCCc2ccc(NC(=O)Cc3cccc(OC)c3)nn2)s1 | 2460 | 190 | –
CCCCC(=O)Nc1nnc(CCCCc2ccc(NC(=O)Cc3cccc(N)c3)nn2)s1 | – | 520 | –
C=CCCC(=O)Nc1nnc(CCCCc2ccc(NC(=O)Cc3cccc(OC(=O)CCC=C)c3)nn2)s1 | 7900 | 140 | –
CCCCOc1cccc(CC(=O)Nc2ccc(OC3CC4CCC(C3)N4c3nnc(NC(=O)CCCC)s3)nn2)c1 (stereo not given) | 16900 | > 20000 | –
C=CCCCCOc1cccc(CC(=O)Nc2ccc(CCCCc3nnc(NC(=O)CCC=C)s3)nn2)c1 | 310 | 25.1 | ΔTm [6]: 13.9 °C; half-life [3]: 25.1 min; solubility at 72 h [7]: 3.6 µg/mL (≈ 6.56 µM); microsomal CLint [4]: 138 µL/min/mg
CCCCCCOc1cccc(CC(=O)Nc2ccc(CCCCc3nnc(NC(=O)C4CC(F)(F)C4)s3)nn2)c1 | 1230 | 24 | solubility at 72 h [7]: 4.1 µg/mL (≈ 6.99 µM)
CCCCC(=O)Nc1nnc(CCCCc2ccc(NC(=O)Cc3cccc(OCCC)c3)nn2)s1 | 820 | 130 | –
C=CCCOc1cccc(CC(=O)Nc2ccc(CCCCc3nnc(NC(=O)CCC=C)s3)nn2)c1 | 1370 | 87 | –
C=CCCOc1cccc(CC(=O)Nc2nnc(CCCCc3ccc(NC(=O)CCC=C)nn3)s2)c1 | 1520 | 240 | –

SMILES | IC50 (HCT-116 [1]) [nM] | IC50 [2] [nM] | also measured
C=CCCOc1cccc(CC(=O)Nc2ccc(N3CCC(Nc4nnc(NC(=O)CCC=C)s4)CC3)nn2)c1 | 430 | 19 | half-life [3]: 68.6 min; microsomal CLint [4]: 50.2 µL/min/mg
CCCCNc1cccc(CC(=O)Nc2ccc(CCCCc3nnc(NC(=O)CCCC)s3)nn2)c1 | – | > 20000 | –
C=CCCCCOc1cccc(CC(=O)Nc2ccc(CCCCc3nnc(N)s3)nn2)c1 | 1090 | 280 | –
C=CCCCOc1cccc(CC(=O)Nc2nnc(CCCCc3ccc(NC(=O)CCC=C)nn3)s2)c1 | 3700 | 36 | –
CCCCCNc1cccc(CC(=O)Nc2ccc(CCCCc3nnc(NC(=O)CCCC)s3)nn2)c1 | – | > 20000 | –
C#CCCC(=O)Nc1nnc(CCCCc2ccc(NC(=O)Cc3cccc(OC(=O)CCC#C)c3)nn2)s1 | 5260 | 390 | –
CCCCCCOc1cccc(CC(=O)Nc2ccc(CCCCc3nnc(NC(=O)CCCC)s3)nn2)c1 | 380 | 19 | half-life [3]: 26 min; microsomal CLint [4]: 134 µL/min/mg
CCCCCCNc1cccc(CC(=O)Nc2ccc(CCCCc3nnc(NC(=O)CCCC)s3)nn2)c1 | – | > 20000 | –
C=CCCOc1cccc(CC(=O)Nc2nnc(CCCCc3ccc(NC(=O)CC=C)nn3)s2)c1 | 24900 | > 5000 | –
CCCCC(=O)Nc1nnc(CCCCc2ccc(NC(=O)Cc3cccc(O)c3)nn2)s1 | 6820 | 170 | –
C=CCCC(=O)Nc1nnc(CCCCc2ccc(NC(=O)Cc3cccc(O)c3)nn2)s1 | 2630 | 530 | –
CCCCCCCCOc1cccc(CC(=O)Nc2ccc(CCCCc3nnc(NC(=O)CCCC)s3)nn2)c1 | 210 | 17 | –
C#CCCC(=O)Nc1nnc(CCCCc2ccc(NC(=O)Cc3cccc(OCCC=C)c3)nn2)s1 | 2250 | 290 | –
CCCCCOc1cccc(CC(=O)Nc2ccc(CCCCc3nnc(NC(=O)C4CC4)s3)nn2)c1 | 4030 | 36 | solubility at 72 h [7]: 0.52 µg/mL (≈ 0.995 µM)
C=CCCCOc1cccc(CC(=O)Nc2nnc(CCCCc3ccc(NC(=O)CC=C)nn3)s2)c1 | 29400 | > 5000 | –
CCCCOc1cccc(CC(=O)Nc2ccc(CCCCc3nnc(NC(=O)C4CC4)s3)nn2)c1 | 2640 | 160 | solubility at 72 h [7]: 0.71 µg/mL (≈ 1.4 µM)
CCCCOc1cccc(CC(=O)Nc2ccc(CCCCc3nnc(NC(=O)CCCC)s3)nn2)c1 | 380 | 27 | half-life [3]: 54.6 min; microsomal CLint [4]: 63.5 µL/min/mg
CCCCOc1cccc(CC(=O)Nc2ccc(CCCCc3nnc(NC(=O)C4CC(F)(F)C4)s3)nn2)c1 | 1860 | 68 | solubility at 72 h [7]: 6.23 µg/mL (≈ 11.2 µM)
